Earlier results in patent US20080241073A1, “Polymeric Micelle Type Mri Imaging Agent” (Kanagawa Academy of Science and Technology, priority 2004, published 2008).

Conditions: Corot et al., Non-patent Literature 2

O=C([O-])CN1CCN(CC(=O)[O-])CCN(CC(=O)O)CCN(CC(=O)[O-])CC1.[Gd+3] [DOTA-Gd]
T1 relaxivity: 3.4
